This experiment concerns the target T1, Human SGLT2 (hSGLT2) (Homo sapiens, UniProt P31639).
T1 construct: expressed in transfected cells
T1 sequence (P31639 1-672): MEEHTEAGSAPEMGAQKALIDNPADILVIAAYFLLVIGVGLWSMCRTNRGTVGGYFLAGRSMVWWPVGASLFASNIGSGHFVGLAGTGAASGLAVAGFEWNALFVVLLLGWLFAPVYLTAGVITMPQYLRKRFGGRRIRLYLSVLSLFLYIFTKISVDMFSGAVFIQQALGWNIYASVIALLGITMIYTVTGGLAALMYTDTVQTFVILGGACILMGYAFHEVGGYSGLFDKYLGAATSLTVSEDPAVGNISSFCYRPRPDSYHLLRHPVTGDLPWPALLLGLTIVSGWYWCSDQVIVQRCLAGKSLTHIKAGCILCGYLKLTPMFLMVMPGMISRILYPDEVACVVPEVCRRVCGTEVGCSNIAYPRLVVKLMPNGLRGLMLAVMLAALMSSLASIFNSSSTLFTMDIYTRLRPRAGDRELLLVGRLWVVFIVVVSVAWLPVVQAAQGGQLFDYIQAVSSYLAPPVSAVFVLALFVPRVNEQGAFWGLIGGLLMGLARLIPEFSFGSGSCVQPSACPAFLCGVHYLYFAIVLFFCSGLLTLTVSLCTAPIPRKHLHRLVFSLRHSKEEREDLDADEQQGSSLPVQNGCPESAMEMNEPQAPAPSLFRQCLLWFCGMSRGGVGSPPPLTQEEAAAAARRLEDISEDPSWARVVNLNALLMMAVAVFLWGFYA
The experiment is described as follows: Sodium-dependent glucose transport (14C-AMG uptake) assay in CHO cells stably expressing hSGLT2. Particulars: CHO cells expressing hSGLT2, 14C-AMG uptake, 37° C. for 2 h; single determinations; read-out: hSGLT2 Inhibitory Activity IC50. The class given is cell-based. From the text:
Cloning and Cell Line Construction for Human SGLT2
Human SGLT2 (hSGLT2) gene was amplified by PCR from cDNA-Human Adult Normal Tissue Kidney (Invitrogen). The hSGLT2 sequence was cloned into pcDNA3.1(+) for mammalian expression and were stably transfected into chinese hamster ovary (CHO) cells. SGLT2-expressing clones were selected based on resistance to G418 antibiotic (Geneticin) and activity in the ^14C-α-methyl-D-glucopyranoside (^14C-AMG) uptake assay.
Inhibitory Effects on Human SGLT2 Activities
For sodium-dependent glucose transport assay, cells expressing hSGLT2 were seeded into a 96-well culture plate at a density of 5×10^4 cells/well in RPMI medium 1640 containing 10% fetal bovine serum. The cells were used 1 day after plating. They were incubated in pretreatment buffer (10 mM HEPES, 5 mM Tris, 140 mM choline chloride, 2 mM KCl, 1 mM CaCl2, and 1 mM MgCl2, pH 7.4) at 37° C. for 10 min. They were then incubated in uptake buffer (10 mM HEPES, 5 mM Tris, 140 mM NaCl, 2 mM KCl, 1 mM CaCl2, 1 mM MgCl2, and 1 mM ^14C-nonlabeled AMG, pH 7.4) containing ^14C-labeled (8 μM) and inhibitor or dimethylsulfoxide (DMSO) vehicle at 37° C. for 2 h. Cells were washed twice with washing buffer (pretreatment buffer containing 10 mM AMG at room temperature) and then the radioactivity was measured using a liquid scintillation counter. IC50 was determined by nonlinear regression analysis using GraphPad PRISM [Katsuno, K. et al. J. Pharmacol. Exp. Ther. 2007, 320, 323-330; Han, S. et al. Deabetes, 2008, 57, 1723-1729].
A word on the IC50: it is the concentration that gives 50% inhibition. As for `OC[C@H]1O[C@@H](n2cc(Cc3ncc(-c4ccco4)s3)c3ccccc32)[C@H](O)[C@@H](O)[C@@H]1O` [Example 130, (2R,3R,4S,5S,6R)-2-(3-((5-(Furan-2-yl)thiazol-2-yl)methyl)-1H-indol-1-yl)-6-(hydroxymethyl)-tetrahydro-2H-pyran-3,4,5-triol], the IC50 was found to be 8.75 nM.

Take `Cc1ccc([C@@H]2O[C@H](CO)[C@@H](O)[C@H](O)[C@H]2O)cc1Cc1ncc(-c2cccs2)s1` [Example 32, (2R,3S,4R,5R,6S)-2-(Hydroxymethyl)-6-(4-methyl-3-((5-(thiophen-2-yl)thiazol-2-yl)methyl)phenyl)tetrahydro-2H-pyran-3,4,5-triol]: the half-inhibitory concentration (IC50) is 3.8 nM.

Turning to `CCOC[C@H]1O[C@@H](c2ccc(Cl)c(Cc3ncc(-c4ccco4)s3)c2)[C@H](O)[C@@H](O)[C@@H]1O` [Example 140, (2S,3R,4R,5S,6R)-2-(4-Chloro-3-((5-(furan-2-yl)thiazol-2-yl)methyl)phenyl)-6-(ethoxymethyl)tetrahydro-2H-pyran-3,4,5-triol], the IC50 came out at 68.7 nM. Turning to `CCCCCSc1cnc(Cc2cc([C@@H]3O[C@H](CO)[C@@H](O)[C@H](O)[C@H]3O)ccc2Cl)s1` [Example 27, (2S,3R,4R,5S,6R)-2-(4-Chloro-3-((5-(pentylthio)thiazol-2-yl)methyl)phenyl)-6-(hydroxymethyl)-tetrahydro-2H-pyran-3,4,5-triol], the IC50 came to 18.9 nM. The result for `CCc1cnc(Cc2cc([C@@H]3O[C@H](CO)[C@@H](O)[C@H](O)[C@H]3O)cc3ccccc23)s1` [Example 105, (2S,3R,4R,5S,6R)-2-(4-((5-Ethylthiazol-2-yl)methyl)naphthalen-2-yl)-6-(hydroxymethyl)-tetrahydro-2H-pyran-3,4,5-triol] reads 243 nM; that for `CCSc1cnc(Cc2cc([C@@H]3O[C@H](CO)[C@@H](O)[C@H](O)[C@H]3O)ccc2Cl)s1` [Example 24, (2S,3R,4R,5S,6R)-2-(4-Chloro-3-((5-(ethylthio)thiazol-2-yl)methyl)phenyl)-6-(hydroxymethyl)-tetrahydro-2H-pyran-3,4,5-triol], 30.9 nM; that for `OC[C@H]1O[C@@H](c2ccc(Cl)c(C3(c4ncc(-c5ccoc5)s4)CC3)c2)[C@H](O)[C@@H](O)[C@@H]1O` [Example 28, (2S,3R,4R,5S,6R)-2-(4-Chloro-3-(1-(5-(furan-3-yl)thiazol-2-yl)cyclopropyl)phenyl)-6-(hydroxymethyl)tetrahydro-2H-pyran-3,4,5-triol], 110 nM.

For `CCCCSc1cnc(Cc2cc([C@@H]3O[C@H](CO)[C@@H](O)[C@H](O)[C@H]3O)ccc2Cl)s1` [Example 26, (2S,3R,4R,5S,6R)-2-(3-((5-(Butylthio)thiazol-2-yl)methyl)-4-chlorophenyl)-6-(hydroxymethyl)-tetrahydro-2H-pyran-3,4,5-triol], the IC50 worked out at 58.7 nM. Regarding `COc1cc(Cl)c(Cc2ncc(-c3ccoc3)s2)cc1[C@@H]1O[C@H](CO)[C@@H](O)[C@H](O)[C@H]1O` [Example 70, (2S,3R,4R,5S,6R)-2-(4-Chloro-5-((5-(furan-3-yl)thiazol-2-yl)methyl)-2-methoxyphenyl)-6-(hydroxymethyl)tetrahydro-2H-pyran-3,4,5-triol], the half-maximal inhibitory concentration (IC50) turned out to be 7.37 nM. As for `OC[C@H]1O[C@@H](c2cc(Cc3ncc(-c4ccco4)s3)c(Cl)cc2O)[C@H](O)[C@@H](O)[C@@H]1O` [Example 112, (2S,3R,4R,5S,6R)-2-(4-Chloro-5-((5-(furan-2-yl)thiazol-2-yl)methyl)-2-hydroxyphenyl)-6-(hydroxymethyl)-tetrahydro-2H-pyran-3,4,5-triol], the half-inhibitory concentration (IC50) amounted to 0.797 nM. The result for `CCCCc1cnc(Cc2cc([C@@H]3O[C@H](CO)[C@@H](O)[C@H](O)[C@H]3O)c(Cl)cc2Cl)s1` [Example 66, (2S,3R,4R,5S,6R)-2-(5-((5-Butylthiazol-2-yl)methyl)-2,4-dichlorophenyl)-6-(hydroxymethyl)tetrahydro-2H-pyran-3,4,5-triol] reads 60.5 nM; that for `OC[C@H]1O[C@@H](c2ccc(Cl)c(Cc3cnc(-c4ccco4)s3)c2)[C@H](O)[C@@H](O)[C@@H]1O` [Example 184, (2S,3R,4R,5S,6R)-2-(4-Chloro-3-((2-(furan-2-yl)thiazol-5-yl)methyl)phenyl)-6-(hydroxymethyl)tetrahydro-2H-pyran-3,4,5-triol], 1.42 nM; that for `N#Cc1ccc([C@@H]2O[C@H](CO)[C@@H](O)[C@H](O)[C@H]2O)cc1Cc1ncc(-c2ccco2)s1` [Example 108, 2-((5-(Furan-2-yl)thiazol-2-yl)methyl)-4-((2S,3R,4R,5S,6R)-3,4,5-trihydroxy-6-(hydroxymethyl)-tetrahydro-2H-pyran-2-yl)benzonitrile], 36.7 nM. The result for `C=CCOc1cc(Cl)c(Cc2ncc(-c3cccs3)s2)cc1[C@@H]1O[C@H](CO)[C@@H](O)[C@H](O)[C@H]1O` [Example 85, (2S,3R,4R,5S,6R)-2-(2-(Allyloxy)-4-chloro-5-((5-(thiophen-2-yl)thiazol-2-yl)methyl)phenyl)-6-(hydroxymethyl)tetrahydro-2H-pyran-3,4,5-triol] reads 1.69 nM. The result for `CCOc1cc(Cl)c(Cc2ncc(-c3ccco3)s2)cc1[C@@H]1O[C@H](CO)[C@@H](O)[C@H](O)[C@H]1O` [Example 77, (2S,3R,4R,5S,6R)-2-(4-Chloro-2-ethoxy-5-((5-(furan-2-yl)thiazol-2-yl)methyl)phenyl)-6-(hydroxymethyl)tetrahydro-2H-pyran-3,4,5-triol] reads 3.98 nM; that for `OCCOc1cc(Cl)c(Cc2ncc(-c3ccco3)s2)cc1[C@@H]1O[C@H](CO)[C@@H](O)[C@H](O)[C@H]1O` [Example 121, (2S,3R,4R,5S,6R)-2-(4-Chloro-5-((5-(furan-2-yl)thiazol-2-yl)methyl)-2-(2-hydroxyethoxy)phenyl)-6-(hydroxymethyl)tetrahydro-2H-pyran-3,4,5-triol], 1.51 nM. On to `COc1cc(Cl)c(Cc2ncc(-c3ccccc3)s2)cc1[C@@H]1O[C@H](CO)[C@@H](O)[C@H](O)[C@H]1O` [Example 73, (2S,3R,4R,5S,6R)-2-(4-Chloro-2-methoxy-5-((5-phenylthiazol-2-yl)methyl)phenyl)-6-(hydroxymethyl)tetrahydro-2H-pyran-3,4,5-triol], for which the IC50 was 2.01 nM. The result for `O=C(OCc1ccccc1)OC[C@H]1O[C@@H](c2ccc(Cl)c(Cc3ncc(-c4ccco4)s3)c2)[C@H](O)[C@@H](O)[C@@H]1O` [Example 164, Benzyl ((2R,3S,4R,5R,6S)-6-(4-chloro-3-((5-(furan-2-yl)thiazol-2-yl)methyl)phenyl)-3,4,5-trihydroxytetrahydro-2H-pyran-2-yl)methyl carbonate] reads 2.44 nM. Consider `OC[C@H]1O[C@@H](c2cc(Cc3ncc(-c4ccsc4)s3)c(Cl)cc2Cl)[C@H](O)[C@@H](O)[C@@H]1O` [Example 62, (2S,3R,4R,5S,6R)-2-(2,4-Dichloro-5-((5-(thiophen-3-yl)thiazol-2-yl)methyl)phenyl)-6-(hydroxymethyl)tetrahydro-2H-pyran-3,4,5-triol], for which the IC50 came out at 2.31 nM. The result for `OC[C@H]1O[C@@H](c2cc(Cc3ncc(-c4cccs4)s3)cc3ccccc23)[C@H](O)[C@@H](O)[C@@H]1O` [Example 94, (2R,3S,4R,5R,6S)-2-(Hydroxymethyl)-6-(3-((5-(thiophen-2-yl)thiazol-2-yl)methyl)naphthalen-1-yl)tetrahydro-2H-pyran-3,4,5-triol] reads 5.98 nM; that for `OC[C@H]1O[C@@H](c2ccc(Cl)c(Cc3cnc(-c4ccoc4)s3)c2)[C@H](O)[C@@H](O)[C@@H]1O` [Example 186, (2S,3R,4R,5S,6R)-2-(4-Chloro-3-((2-(furan-3-yl)thiazol-5-yl)methyl)phenyl)-6-(hydroxymethyl)tetrahydro-2H-pyran-3,4,5-triol], 4.47 nM.

(Values after patent publication US8586550B2, “Thiazole derivatives as SGLT2 inhibitors and pharmaceutical composition comprising same” (Green Cross Corporation, priority 2010, dated 2013).)
